Assay results: patent publication US20180312493A1, “Antibiotic Compounds, Pharmaceutical Formulations Thereof And Methods And Uses Therefor” (Simon Fraser University, priority 2015, published 2018)
≈ marks a conversion by molar mass, not a printed value.

Tests used:
MRSA (ATCC BAA-1762) = test: In vitro susceptibility, broth microdilution (MIC); type: cell-based, methicillin resistant S. aureus; settings: Staphylococcus aureus; MRSA ATCC BAA-1762; read-out: Antimicrobial activity (MIC) MRSA ATCC BAA1762
From the text: (§1) Epidemic methicillin resistant S. aureus (MRSA) strain sequenced at the Sanger Centre (MRSA252, NRS71) was obtained from NARSA (Network on Antimicrobial Resistance in S. aureus). Methicillin sensitive S. aureus (ATCC 29213 and 25923), methicillin resistant S. aureus (ATCC BAA-1762), and Salmonella typhimurium (ATCC BAA-185) were obtained from ATCC, The Global Bioresource Center. Acinetobacter baumannii (ATCC 19606 and ATCC 17978), Klebsiella pneumonia (C238), vancomycin resistant Enterococci #2 (2010A) (VRE#2), MRSA (USA400, MW2) and Pseudomonas aeruginosa (PA0-1) were obtained from the laboratory of Dr B. B. Finlay at the University of British Columbia (Vancouver, Canada).
(§2) The antimicrobial activities of PK inhibitor candidates were determined using the 96-well microtiter standard 2-fold serial broth microdilution method as described by CLSI (formerly NCCLS) with the various gram-positive and gram-negative bacteria species mentioned above. Bacteria from a single colony were grown, overnight in either BHI Broth (VRE), mueller hinton broth (S. aureus 29213; MRSA USA400, A. baumannii 19606, MRSA BAA-1762) or L-broth (P. aeruginosa, S. typhimurium, K. pneumonia and A. baumannii 17978). Each compound was prepared in DMSO with 2-fold serial dilutions to give a final concentration of, 0.031 to 64 μg/ml. 10 μl of the compound solution was then added, in duplicate, to either, 190 μl of cation adjusted mueller hinton broth (CAMHB) or 190 μl CAMHB containing ˜2.5×10^5 CFU/ml of bacteria (final compound concentration 0.031 to 64 μg/ml). Culture plates were incubated for 18-24 h at 37° C., and optical density at 600 nm (OD600) was measured using a Benchmark Plus™ microplate spectrophotometer (Bio-Rad™). The absorbance control values for the series containing CAMHB and inhibitor were subtracted as background from the corresponding infected wells. Minimal inhibitory concentration (MIC) was defined as the lowest concentration of test compound leading to complete inhibition of cell growth in relation to compound-free control wells as determined by optical density. Vancomycin, methicillin and ciprofloxicin were used as reference compounds. All assays were run in triplicate or duplicate. Experiments were replicated at least twice to verify reproducibility using the above conditions.

S. aureus (ATCC29213) = test: In vitro susceptibility, broth microdilution (MIC); type: cell-based; settings: Staphylococcus aureus; S. aureus ATCC29213; 18-24 h, 37 C; read-out: Antimicrobial activity (MIC) S. aureus ATCC29213
In short: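 CLSI 2-fold serial broth microdilution; K. pneumoniae C238 grown in L-broth, S. aureus ATCC 29213 in Mueller Hinton broth, plates incubated 18–24 h at 37 °C. MIC taken as lowest concentration giving complete growth inhibition by OD600 versus compound-free wells, background-subtracted.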

VRE#2 (2010A) = test: In vitro susceptibility, broth microdilution (MIC); type: cell-based, vancomycin resistant Enterococci; settings: VRE#2 (2010A); read-out: Antimicrobial activity (MIC) VRE#2
From the text: as §1, §2

MRSA Pyk = target: T1, MRSA Pyk (Staphylococcus aureus, UniProt Q6GG09); test: MRSA pyruvate kinase (PK) activity, continuous LDH-coupled assay; type: biochemical, methicillin resistant S. aureus (MRSA252)
T1 construct: made in house; host or cells: E. coli BL-21 (DE3)
In short: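 His-tagged MRSA PK (strain Sanger 252) and human PK isoforms expressed in E. coli BL-21 (DE3) and Ni-NTA purified, used at 15 nM in an LDH-coupled assay following NADH oxidation at 340 nm, 30° C, up to 5 min, ≤1% DMSO. IC50 from four-parameter variable-slope fit; Ki with PEP 2-20 mM, ADP fixed 2 mM, inhibitor 0-400 nM.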

T1 sequence (Q6GG09 whole entry): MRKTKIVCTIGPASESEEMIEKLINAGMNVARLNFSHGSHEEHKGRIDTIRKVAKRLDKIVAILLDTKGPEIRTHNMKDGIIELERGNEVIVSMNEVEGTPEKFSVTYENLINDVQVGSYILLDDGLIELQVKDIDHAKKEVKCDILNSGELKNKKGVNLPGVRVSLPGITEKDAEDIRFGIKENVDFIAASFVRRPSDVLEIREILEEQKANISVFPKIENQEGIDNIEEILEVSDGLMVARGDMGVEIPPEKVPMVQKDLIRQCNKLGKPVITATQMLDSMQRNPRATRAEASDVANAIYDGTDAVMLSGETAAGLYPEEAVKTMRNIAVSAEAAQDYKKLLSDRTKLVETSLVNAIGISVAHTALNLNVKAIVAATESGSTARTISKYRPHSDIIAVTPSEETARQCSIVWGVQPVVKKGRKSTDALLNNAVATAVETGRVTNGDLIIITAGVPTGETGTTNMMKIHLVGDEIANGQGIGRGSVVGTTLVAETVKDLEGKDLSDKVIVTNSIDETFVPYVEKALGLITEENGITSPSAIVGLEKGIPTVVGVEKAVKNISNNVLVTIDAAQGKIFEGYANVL

SMILES | MIC (MRSA (ATCC BAA-1762)) | MIC (S. aureus (ATCC29213)) | MIC (VRE#2 (2010A)) | IC50 (MRSA Pyk)
CC(C)(C)OC(=O)N1CCN(C(=O)c2c(-c3cc4cc(Cl)ccc4[nH]3)[nH]c3cc(Br)ccc23)C(C(=O)O)C1 (stereo not drawn) [Compound 224, 1-(6-bromo-5′-chloro-1H,1′H-[2,2′-biindole]-3-carbonyl)-4-(tert-butoxycarbonyl)piperazine-2-carboxylic Acid] | 32 µg/mL (≈ 53.2 µM) | 32 µg/mL (≈ 53.2 µM) | 32 µg/mL (≈ 53.2 µM) | < 0.1 µM
Cc1ccc2sc(NC(=O)Nc3ccc(Cl)cc3)nc2c1 [Compound 170, 1-(4-chlorophenyl)-3-(5-methylbenzo[d]thiazol-2-yl)urea] | 2 µg/mL (≈ 6.29 µM) | 4 µg/mL (≈ 12.6 µM) | – | –
O=C1NCCn2c(cc3cc(Cl)ccc32)-c2[nH]c3cc(Br)ccc3c21 [Compound 74, 12-Bromo-2-chloro-7,8-dihydro-6H-[1,4]diazocino[1,8-a:7,6-b′]diindol-9(14H)-one] | – | 32 µg/mL (≈ 77.2 µM) | 64 µg/mL (≈ 154 µM) | < 0.1 µM
Nc1c(/C=C/c2ccc(Cl)cc2)[nH]c2cc(Br)ccc12 [Compound 92, (E)-6-bromo-2-(4-chlorostyryl)-1H-indol-3-amine] | – | 64 µg/mL (≈ 184 µM) | 32 µg/mL (≈ 92 µM) | < 0.1 µM
COC(=O)c1c(NS(=O)(=O)c2ccc(Cl)cc2)[nH]c2cc(Br)ccc12 [Compound 182, Methyl 6-bromo-2-((4-chlorophenyl)sulfonamido)-1H-indole-3-carboxylate] | 0.5 µg/mL (≈ 1.13 µM) | 8 µg/mL (≈ 18 µM) | 64 µg/mL (≈ 144 µM) | –
CCCC(=O)OC1CCN(CCNC(=O)c2c(/C=C/c3ccc(Cl)cc3)[nH]c3cc(Br)ccc23)CC1 [Compound 57, (E)-1-(2-(6-Bromo-2-(4-chlorostyryl)-1H-indole-3-carboxamido)ethyl)piperidin-4-yl Butyrate] | – | > 64 µg/mL | > 64 µg/mL | 0.1 to 1 µM
CC(=O)Nc1nc2cc(Br)ccc2s1 [Compound 175, N-(5-bromobenzo[d]thiazol-2-yl)acetamide] | 16 µg/mL (≈ 59 µM) | 32 µg/mL (≈ 118 µM) | 32 µg/mL (≈ 118 µM) | –
CN(C)C(=O)c1c(/C=C/c2ccc(Cl)nc2)[nH]c2cc(Br)ccc12 [Compound 36, (E)-6-bromo-2-(2-(6-chloropyridin-3-yl)vinyl)-N,N-dimethyl-1H-indole-3-carboxamide] | – | > 64 µg/mL | – | 0.1 to 1 µM
ON=C(c1c(/C=C/c2ccc(Cl)cc2)[nH]c2cc(Br)ccc12)C(F)(F)F (racemic) [Compound 19, 1-(6-Bromo-2-(4-chlorostyryl)-1H-indol-3-yl)-2,2,2-trifluoroethanone Oxime] | – | 0.5 µg/mL (≈ 1.13 µM) | – | 0.1 to 1 µM
OC(c1c(CCc2ccc(Cl)cc2)[nH]c2cc(Br)ccc12)C(F)(F)F (stereo not drawn) [Compound 17] | – | 2 µg/mL (≈ 4.62 µM) | – | 0.1 to 1 µM
CC(O)(c1c(/C=C/c2ccc(Cl)cc2)[nH]c2cc(Br)ccc12)C(F)(F)F (stereo not drawn) [Compound 18, (E)-2-(6-Bromo-2-(4-chlorostyryl)-1H-indol-3-yl)-1,1,1-trifluoropropan-2-ol] | – | 1 µg/mL (≈ 2.25 µM) | – | < 0.1 µM
FC(F)(F)c1c(/C=C/c2ccc(Cl)cc2)[nH]c2cc(Br)ccc12 [Compound 65, (E)-6-Bromo-2-(4-chlorostyryl)-3-(trifluoromethyl)-1H-indole] | – | 1 µg/mL (≈ 2.5 µM) | – | < 0.1 µM
O=C(NCc1ccccc1)c1cc(Br)cc2[nH]c(/C=C/c3ccc(Cl)cc3)cc12 [Compound 63, (E)-N-Benzyl-6-bromo-2-(4-chlorostyryl)-1H-indole-4-carboxamide] | – | > 64 µg/mL | – | 0.1 to 1 µM
O=C(Nc1ccc(Cl)cc1)Nc1nc2cc(Br)ccc2s1 [Compound 141, 1-(5-bromobenzo[d]thiazol-2-yl)-3-(4-chlorophenyl)urea] | 0.5 µg/mL (≈ 1.31 µM) | 0.5 µg/mL (≈ 1.31 µM) | – | –
O=C(NCCN1CCC(O)CC1)c1c(/C=C/c2ccc(Cl)cc2)[nH]c2cc(Br)ccc12 [Compound 30, (E)-6-Bromo-2-(4-chlorostyryl)-N-(2-(4-hydroxypiperidin-1-yl)ethyl)-1 H-indole-3-carboxamide] | – | 16 µg/mL (≈ 31.8 µM) | – | 0.1 to 1 µM
O=C(CCN1CCOCC1)c1c(/C=C/c2cn3ccccc3n2)[nH]c2cc(Br)ccc12 [Compound 10, (E)-1-(6-Bromo-2-(2-(imidazo[1,2-a]pyridin-2-yl)vinyl)-1H-indol-3-yl)-3-morpholinopropan-1-one] | – | > 64 µg/mL | – | 0.1 to 1 µM
O=C(c1c(/C=C/c2ccc(Cl)cc2)[nH]c2cc(Br)ccc12)N1CCOCC1 [Compound 22, (E)-(6-Bromo-2-(4-chlorostyryl)-1H-indol-3-yl)(morpholino)methanone] | – | > 64 µg/mL | – | < 0.1 µM
Clc1ccc(/C=C/c2[nH]c3cc(Br)ccc3c2-c2nn[nH]n2)cc1 [Compound 69, (E)-6-Bromo-2-(4-chlorostyryl)-3-(2H-tetrazol-5-yl)-1H-indole] | – | 16 µg/mL (≈ 39.9 µM) | – | < 0.1 µM
CNC(=O)c1c(CCc2ccc(Cl)cc2)[nH]c2cc(Br)ccc12 [Compound 49, 6-Bromo-2-(4-chlorophenethyl)-N-methyl-1H-indole-3-carboxamide] | – | > 64 µg/mL | – | > 1 µM
O=C(NCc1ccccc1)c1c(/C=C/c2ccc(Cl)cc2)[nH]c2cc(Br)ccc12 [Compound 27, (E)-N-Benzyl-6-bromo-2-(4-chlorostyryl)-1H-indole-3-carboxamide] | – | > 64 µg/mL | – | < 0.1 µM
O=C(c1c(CCc2ccc(Cl)cc2)[nH]c2cc(Br)ccc12)N1CCOCC1 [Compound 47, (6-Bromo-2-(4-chlorophenethyl)-1H-indol-3-yl)(morpholino)methanone] | – | > 64 µg/mL | – | > 1 µM
O=C(OCCN1CCOCC1)c1c(/C=C/c2ccc(Cl)cc2)[nH]c2cc(Br)ccc12 [Compound 62, 2-Morpholinoethyl (E)-6-bromo-2-(4-chlorostyryl)-1H-indole-3-carboxylate] | – | > 64 µg/mL | – | 0.1 to 1 µM
CN(C)C(=O)c1c(CCc2ccc(Cl)cc2)[nH]c2cc(Br)ccc12 [Compound 50, 6-Bromo-2-(4-chlorophenethyl)-N,N-dimethyl-1H-indole-3-carboxamide] | – | > 64 µg/mL | – | > 1 µM
CN1CCN(CCNC(=O)c2c(/C=C/c3ccc(Cl)cc3)[nH]c3cc(Br)ccc23)CC1 [Compound 31, (E)-6-Bromo-2-(4-chlorostyryl)-N-(2-(4-methylpiperazin-1-yl)ethyl)-1 H-indole-3-carboxamide] | – | 16 µg/mL (≈ 31.9 µM) | – | < 0.1 µM
CN1CCN(CCC(=O)c2c(/C=C/c3cn4ccccc4n3)[nH]c3cc(Br)ccc23)CC1 [Compound 8, (E)-1-(6-Bromo-2-(2-(imidazo[1,2-a]pyridin-2-yl)vinyl)-1H-indol-3-yl)-3-(4-methylpiperazin-1-yl)propan-1-one] | – | 64 µg/mL (≈ 130 µM) | – | 0.1 to 1 µM
O=C(NCCN1CCNCC1)c1c(/C=C/c2ccc(Cl)cc2)[nH]c2cc(Br)ccc12 [Compound 52, (E)-6-Bromo-2-(4-chlorostyryl)-N-(2-(piperazin-1-yl)ethyl)-1H-indole-3-carboxamide] | – | 16 µg/mL (≈ 32.8 µM) | – | < 0.1 µM
CC(C)(C)OC(=O)N1CCN(CCNC(=O)c2c(/C=C/c3ccc(Cl)cc3)[nH]c3cc(Br)ccc23)CC1 [Compound 33, (E)-tert-Butyl 4-(2-(6-bromo-2-(4-chlorostyryl)-1H-indole-3-carboxamido)ethyl)piperazine-1-carboxylate] | – | > 64 µg/mL | – | > 1 µM
O=C(NCCO)c1c(/C=C/c2ccc(Cl)cc2)[nH]c2cc(Br)ccc12 [Compound 28, (E)-6-Bromo-2-(4-chlorostyryl)-N-(2-hydroxyethyl)-1H-indole-3-carboxamide] | – | > 64 µg/mL | – | 0.1 to 1 µM
